Reference: US12384801B2, “Benzothiophene, thienopyridine and thienopyrimidine derivatives for the modulation of sting” (CTXT PTY LTD, priority 2019, dated 2025)

Key:
[1] = target: WT human STING isoform (Homo sapiens (Human), UniProt Q86WV6, H232R); test: THP-1-Dual KI-hSTING-R232 reporter cell line assay; assay type: cell-based; conditions: 24 h incubation, luminescence, normalized to ML RR-S2 CDA 40 μM; read-out: EC50 THP-1 Dual KI-hSTING-R232 cells
Method: (§1) THP-1 STING Lucia ISG cells (InvivoGen #thpl-isg) were cultured in RPMI-1640 containing 2 mM L-glutamine, 25 mM HEPES, 100 μg/mL Normocin (InvivoGen) and 10% heat-inactivated FBS. Cells were seeded at a density of 7×10^5 cells/mL, maintained at 37° C./5% CO2, and passaged every 3-4 days. Selection pressure was maintained by the addition of 100 μg/mL Zeocin every second passage.
(§2) Assay conditions: cells were harvested and resuspended at a concentration of 5×10^5 cells/mL in fresh growth media. Of this cell preparation 20 μL per well was dispensed into 384 well cell culture plates (Greiner, #781098X) and incubated at 37° C./5% CO2 for 2 hours.
(§3) Concentration Response Curves (commonly 11 doses) were prepared by 2.5 fold serial dilution starting from 10 mM compound stock solution in DMSO. Compound dilutions were transferred into the cell culture plates using a pintool (0.1 μL transfer), control wells were matched for DMSO. Positive control wells received ML RR-S2 CDA (Med Chem Express HY12885B) in 5 μL of media to a final concentration of 40 μM. All other wells received additional 5 μL of media only to equalize volume. The plates were incubated for 24 h at 37° C./5% CO2.
(§4) For the detection step, QUANTI-Luc (InvivoGen #rep-qlc1) was prepared according to manufacturer's instruction and 10 μL were added per well to the culture plates. Plates were shaken for ten seconds on an orbital shaker and left in the dark at room temperature for two minutes, before luminescence was read on a Perkin Elmer Envision plate reader.
(§5) Data analysis: Luminescence raw data was normalized % activity relative to the signal of the positive control wells and negative control wells which were not treated with compound. The following formula was used to calculate normalized % activity from raw signals: % activity=(sample−negative)/(positive−negative)
(§6) The THP-1 STING Lucia ISG cell EC50 provides an assessment of activity at the human HAQ isoform of STING. For assessing compound activity against the WT human STING isoform, an equivalent method was conducted where the cells used were THP-1-Dual KI-hSTING-R232 (InvivoGen #thpd-r232).

[2] = target: human HAQ isoform of STING (Homo sapiens (Human), UniProt Q86WV6, G230A/H232R/R293Q/R71H); test: THP-1 STING Lucia ISG reporter cell line assay; assay type: cell-based; conditions: 24 h incubation, luminescence, normalized to ML RR-S2 CDA 40 μM; read-out: EC50 THP-I STING Lucia ISG cells
Method: as §1, §2, §3, §4, §5, §6

[3] = target: T1, human STING (HAQ) (Homo sapiens (Human), UniProt Q86WV6, G230A/H232R/R293Q); test: Surface Plasmon Resonance (SPR), STING (HAQ); conditions: read-out: SPR (HAQ) KD; biotinylated STING on streptavidin chip, 8° C.
[4] = target: T2, human STING (WT) (Homo sapiens (Human), UniProt Q86WV6, H232R); test: Differential scanning fluorimetry (DSF), huSTING (WT); assay type: binding; conditions: compound 100 μM, 2 μM protein, Tm with ligand minus Tm of protein alone (1% DMSO)
Method: (§7) Data were analyzed using “Meltdown analysis” protocol described by Rosa (2015).

[5] = target: T1, human STING (HAQ); test: Differential scanning fluorimetry (DSF), huSTING (HAQ); assay type: binding; conditions: compound 100 μM, 2 μM protein, Tm with ligand minus Tm of protein alone (1% DMSO)
Method: as §7

[6] = target: T2, human STING (WT); test: Surface Plasmon Resonance (SPR), STING (WT); conditions: read-out: SPR (WT) KD; biotinylated STING on streptavidin chip, 8° C.

Sequence of human HAQ isoform of STING (Q86WV6 whole entry R71H/G230A/H232R/R293Q, canonical isoform): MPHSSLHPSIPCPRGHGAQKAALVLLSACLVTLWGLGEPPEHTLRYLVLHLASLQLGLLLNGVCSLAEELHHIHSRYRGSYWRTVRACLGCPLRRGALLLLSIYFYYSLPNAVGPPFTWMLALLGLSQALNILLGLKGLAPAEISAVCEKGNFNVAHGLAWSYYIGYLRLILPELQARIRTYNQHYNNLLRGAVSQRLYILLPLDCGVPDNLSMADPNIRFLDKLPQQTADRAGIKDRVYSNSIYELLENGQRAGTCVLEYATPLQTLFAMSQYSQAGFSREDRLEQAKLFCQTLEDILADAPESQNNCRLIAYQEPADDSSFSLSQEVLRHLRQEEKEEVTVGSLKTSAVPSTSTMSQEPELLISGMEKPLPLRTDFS
Sequence of WT human STING isoform (Q86WV6 whole entry H232R, canonical isoform): as the sequence (Q86WV6 whole entry R71H/G230A/H232R/R293Q, canonical isoform) above, with H71R, A230G, Q293R counted along it
T1 sequence (Q86WV6 149-345 G230A/H232R/R293Q): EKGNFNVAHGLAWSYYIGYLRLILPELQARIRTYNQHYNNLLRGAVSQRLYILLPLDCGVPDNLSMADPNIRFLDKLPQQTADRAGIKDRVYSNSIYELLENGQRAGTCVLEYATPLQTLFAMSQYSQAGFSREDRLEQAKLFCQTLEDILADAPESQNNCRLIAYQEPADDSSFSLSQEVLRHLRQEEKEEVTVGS
T2 sequence (Q86WV6 149-345 H232R): as the sequence (Q86WV6 149-345 G230A/H232R/R293Q) above, with A82G, Q145R counted along it

Row | SMILES | EC50 [1] | EC50 [2] | Kd [3] | DSF huSTING (WT) ΔTm [4] | DSF huSTING (HAQ) ΔTm [5] | Kd [6] | ΔTm at 100 µM [4] | ΔTm at 100 µM [5]
1 | NC(=O)c1ccc2c(c1)nc(-c1c(C(=O)O)sc3c(F)ccc(Cl)c13)n2CCn1c(-c2c(C(=O)O)sc3c(F)ccc(Cl)c23)nc2cc(C(N)=O)ccc21 (single isomer, unassigned) [Example 2.2, 3,3′-(Ethane-1,2-diylbis(5-carbamoyl-1H-benzo[d]imidazole-1,2-diyl))bis(4-chloro-7-fluorobenzo[b]thiophene-2-carboxylic acid)] | 4.3 µM | 8.32 µM | 0.124 µM | 8.85 °C | 22.2 °C | – | – | –
2 | NC(=O)c1ccc2c(c1)nc(-c1c(C(=O)O)sc3cccc(Br)c13)n2CCn1c(-c2c(C(=O)O)sc3cccc(Br)c23)nc2cc(C(N)=O)ccc21 (single isomer, unassigned) [Example 11.2, 3,3′-(Ethane-1,2-diylbis(5-carbamoyl-1H-benzo[d]imidazole-1,2-diyl))bis(4-bromobenzo[b]thiophene-2-carboxylic acid)] | 2.83 µM | 5.48 µM | – | −5.12 °C | −1.75 °C | 1.43 µM | – | –
3 | COc1ccc(F)c2sc(C(=O)O)c(-c3nc4cc(C(N)=O)ccc4n3CCn3c(-c4c(C(=O)O)sc5c(F)ccc(OC)c45)nc4cc(C(N)=O)ccc43)c12 (single isomer, unassigned) [Example 13.2, 3,3′-(Ethane-1,2-diylbis(5-carbamoyl-1H-benzo[d]imidazole-1,2-diyl))bis(7-fluoro-4-methoxybenzo[b]thiophene-2-carboxylic acid)] | > 40 µM | > 40 µM | – | −1.43 °C | 0.89 °C | 2.37 µM | – | –
4 | Cc1cccc2sc(C(=O)O)c(-c3nc4cc(C(N)=O)ccc4n3CCn3c(-c4c(C(=O)O)sc5cccc(C)c45)nc4cc(C(N)=O)ccc43)c12 (single isomer, unassigned) [Example 15.1, 3,3′-(Ethane-1,2-diylbis(5-carbamoyl-1H-benzo[d]imidazole-1,2-diyl))bis(4-methylbenzo[b]thiophene-2-carboxylic acid)] | 1.01 µM | 1.54 µM | – | – | – | 0.43 µM | 10.5 °C | 24.6 °C
5 | NC(=O)c1ccc2c(c1)nc(-c1c(C(=O)O)sc3ccccc13)n2CCn1c(-c2c(C(=O)O)sc3ccccc23)nc2cc(C(N)=O)ccc21 [Example 9, 3,3′-(Ethane-1,2-diylbis(5-carbamoyl-1H-benzo[d]imidazole-1,2-diyl))bis(benzo[b]thiophene-2-carboxylic acid)] | 3.65 µM | > 40 µM | 10.1 µM | – | – | – | 2.36 °C | 6.7 °C
6 | N#Cc1cccc2sc(C(=O)O)c(-c3nc4cc(C(N)=O)ccc4n3CCn3c(-c4c(C(=O)O)sc5cccc(C#N)c45)nc4cc(C(N)=O)ccc43)c12 [Example 17, 3,3′-(Ethane-1,2-diylbis(5-carbamoyl-1H-benzo[d]imidazole-1,2-diyl))bis(4-cyanobenzo[b]thiophene-2-carboxylic acid)] | 9.4 µM | 14.9 µM | 38 µM | – | – | – | -2.58 °C | 3.27 °C
7 | CCOc1cccc2sc(C(=O)O)c(-c3nc4cc(C(N)=O)ccc4n3CCn3c(-c4c(C(=O)O)sc5cccc(OCC)c45)nc4cc(C(N)=O)ccc43)c12 [Example 24, 3,3′-(Ethane-1,2-diylbis(5-carbamoyl-1H-benzo[d]imidazole-1,2-diyl))bis(4-ethoxybenzo[b]thiophene-2-carboxylic acid)] | > 40 µM | > 40 µM | 37 µM | – | – | – | -0.39 °C | 3.15 °C
